This series is described as follows: method code SF-AS, from Yamada, T.; Tsukamoto, Y.; Shimamura, H.; Banno, S.; Sato, M. (1983). Pyridazinones 4. synthesis anti secretory and anti ulcer activities of urea derivatives. Eur J Med Chem, 18(3)209-214.
Usually logP stands for the decadic logarithm of the partition coefficient of the neutral form, usually between octanol and water. In turn, `CCNC(=O)NCCCn1nc(-c2ccccc2)ccc1=O` displayed a logP of 1.68.

With `CNC(=O)NCCCCCn1nc(-c2ccccc2)ccc1=O`, the log partition coefficient (logP) was found to be 1.26.

For `O=C(NCCCCCn1nc(-c2ccccc2)ccc1=O)NC1CCCCC1`, the lipophilicity (logP) was determined as 2.03.

`NC(=O)NCCCCCn1nc(-c2ccccc2)ccc1=O` came in with a lipophilicity (logP) of 1.08.

As for `CNC(=O)NCCn1nc(-c2ccccc2)ccc1=O`, the lipophilicity (logP) was 0.39.

In turn, `CCCNC(=O)NCCCCn1nc(-c2ccccc2)ccc1=O` displayed a log partition coefficient (logP) of 1.71.

On to `NC(=O)NCCCCn1nc(-c2ccccc2)ccc1=O`, for which the logP worked out at 1.21.

On to `NC(=O)NCCCCCCn1nc(-c2ccccc2)ccc1=O`, for which the lipophilicity (logP) amounted to 1.82.

As to `CN(C)C(=O)NCCCCn1nc(-c2ccccc2)ccc1=O`, the logP amounted to 1.58.

With `CCNC(=O)NCCCCCCn1nc(-c2ccccc2)ccc1=O`, the logP was found to be 1.81.

On to `CNC(=O)NCCCCCCCn1nc(-c2ccccc2)ccc1=O`, for which the logP was 1.06.

`CCN(CC)C(=O)NCCCn1nc(-c2ccccc2)ccc1=O` yielded a logP of 1.72.

Consider `CCCCNC(=O)NCCCCn1nc(-c2ccccc2)ccc1=O`, for which the logP was 2.2.

`CN(C)C(=O)NCCCCCn1nc(-c2ccccc2)ccc1=O` displayed a logP of 1.74.

Turning to `O=C(NCCCCn1nc(-c2ccccc2)ccc1=O)NC1CCCCC1`, the logP is 1.99.

In turn, `NC(=O)NCCCn1nc(-c2ccccc2)ccc1=O` displayed a lipophilicity (logP) of 0.69.

The molecule `CN(C)C(=O)NCCCCCCn1nc(-c2ccccc2)ccc1=O` returned a lipophilicity (logP) of 1.45.

On to `CC(C)(C)NC(=O)NCCCCn1nc(-c2ccccc2)ccc1=O`, for which the log partition coefficient (logP) was determined as 2.07.

`CNC(=O)NCCCCCCCCn1nc(-c2ccccc2)ccc1=O` gave a lipophilicity (logP) of 0.84.

For `O=C(NCCCCn1nc(-c2ccccc2)ccc1=O)Nc1ccccc1`, the logP stood at 2.32.

As for `CNC(=O)NCCCn1nc(-c2ccccc2)ccc1=O`, the logP stood at 1.16.

The molecule `CCNC(=O)NCCCCn1nc(-c2ccccc2)ccc1=O` gave a log partition coefficient (logP) of 1.83.

The molecule `CCN(CC)C(=O)NCCCCCCn1nc(-c2ccccc2)ccc1=O` yielded a logP of 1.85.

In turn, `NC(=O)NCCn1nc(-c2ccccc2)ccc1=O` had a logP of 0.52.

Molecule `CNC(=O)NCCCCCCn1nc(-c2ccccc2)ccc1=O` had a log partition coefficient (logP) of 1.31.

Consider `CNC(=O)NCCCCn1nc(-c2ccccc2)ccc1=O`, for which the lipophilicity (logP) amounted to 1.23.

Turning to `CN(C)C(=O)NCCCn1nc(-c2ccccc2)ccc1=O`, the log partition coefficient (logP) came out at 1.61.

On to `CC(C)NC(=O)NCCCCn1nc(-c2ccccc2)ccc1=O`, for which the lipophilicity (logP) amounted to 1.91.

Consider `CCNC(=O)NCCCCCn1nc(-c2ccccc2)ccc1=O`, for which the logP amounted to 1.76.

On to `Cc1ccc(S(=O)(=O)NC(=O)NCCCCn2nc(-c3ccccc3)ccc2=O)cc1`, for which the logP stood at 1.77.

Consider `CCN(CC)C(=O)NCCCCn1nc(-c2ccccc2)ccc1=O`, for which the log partition coefficient (logP) worked out at 1.89. The logP values of the last two molecules are within 0.2 log units of each other.
